These results are taken from PubChem BioAssay AID2060626 (Molecular Pharmacology Branch, DTP, NCI, 2025).

The test deals with 168753-222-R-J1-PDC complex spheroid viability. Kind of test: Anticancer human tumor 168753-222-R-J1-PDC patient-derived bladder carcinoma cell line growth inhibition [CLK]. The note with it: for viability, T/C: stronger effect = lower value. In short, it runs like this:
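Patient-derived tumor cells grown as complex spheroids with HUVEC endothelial cells and mesenchymal stem cells, treated with drug combinations. Concentrations descend in half-log steps from near clinical Cmax, or from 10 microM if Cmax unknown.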

The mark [1] stands for this setting: curve of first compound, second compound 0.0316 µM.
Where [2] appears, read: curve of first compound, second compound 0.1 µM.
Setting [3] is: curve of first compound, second compound 0.316 µM.
Where [4] appears, read: curve of first compound, second compound 1 µM.
Where [5] appears, read: curve of first compound, second compound 3.16 µM.
[6] abbreviates: curve of first compound, second compound 10 µM.
[7] abbreviates: second compound 0.0316 µM, first compound 0.0316 µM.
The mark [8] stands for this setting: second compound 0.0316 µM, first compound 0.1 µM.
Setting [9] is: second compound 0.0316 µM, first compound 0.316 µM.
Where [10] appears, read: second compound 0.0316 µM, first compound 1 µM.
The mark [11] stands for this setting: second compound 0.0316 µM, first compound 3.16 µM.
Where [12] appears, read: second compound 0.0316 µM, first compound 10 µM.
[13] abbreviates: second compound 0.1 µM, first compound 0.0316 µM.
The mark [14] stands for this setting: second compound 0.1 µM, first compound 0.1 µM.
Setting [15] is: second compound 0.1 µM, first compound 0.316 µM.
[16] abbreviates: second compound 0.1 µM, first compound 1 µM.
Setting [17] is: second compound 0.1 µM, first compound 3.16 µM.
[18] abbreviates: second compound 0.1 µM, first compound 10 µM.
[19] abbreviates: second compound 0.316 µM, first compound 0.0316 µM.
Setting [20] is: second compound 0.316 µM, first compound 0.1 µM.
The mark [21] stands for this setting: second compound 0.316 µM, first compound 0.316 µM.
Where [22] appears, read: second compound 0.316 µM, first compound 1 µM.
Where [23] appears, read: second compound 0.316 µM, first compound 3.16 µM.
[24] abbreviates: second compound 0.316 µM, first compound 10 µM.
[25] abbreviates: second compound 1 µM, first compound 0.0316 µM.
Setting [26] is: second compound 1 µM, first compound 0.1 µM.
[27] abbreviates: second compound 1 µM, first compound 0.316 µM.
Setting [28] is: second compound 1 µM, first compound 1 µM.
The mark [29] stands for this setting: second compound 1 µM, first compound 3.16 µM.
The mark [30] stands for this setting: second compound 1 µM, first compound 10 µM.
The mark [31] stands for this setting: second compound 3.16 µM, first compound 0.0316 µM.
Where [32] appears, read: second compound 3.16 µM, first compound 0.1 µM.
The mark [33] stands for this setting: second compound 3.16 µM, first compound 0.316 µM.
Where [34] appears, read: second compound 3.16 µM, first compound 1 µM.
Setting [35] is: second compound 3.16 µM, first compound 3.16 µM.
[36] abbreviates: second compound 3.16 µM, first compound 10 µM.
[37] abbreviates: second compound 10 µM, first compound 0.0316 µM.
[38] abbreviates: second compound 10 µM, first compound 0.1 µM.
The mark [39] stands for this setting: second compound 10 µM, first compound 0.316 µM.
Setting [40] is: second compound 10 µM, first compound 1 µM.
[41] abbreviates: second compound 10 µM, first compound 3.16 µM.
The mark [42] stands for this setting: second compound 10 µM, first compound 10 µM.

Several values for one entry are separate records, joined by “and”; a condition that tells them apart may be missing. Identical values can stand only once.
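Also: viability measured after seven days of drug exposure.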
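For viability, T/C in this document: luminescence signal used as surrogate for viable cell amount; 100% = DMSO vehicle control wells.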

The term IC50 denotes the midpoint of a concentration-inhibition curve. A word on the viability, T/C: it is the ratio of treated to control. `CC1(C)CCC(CN2CCN(c3ccc(C(=O)NS(=O)(=O)c4ccc(NCC5CCOCC5)c([N+](=O)[O-])c4)c(Oc4cnc5[nH]ccc5c4)c3)CC2)=C(c2ccc(Cl)cc2)C1` + CN1CCN(c2cc(C(=O)Nc3cc4cc(-c5cnn(C)c5)ccc4cn3)ccn2)CC1: the 50% inhibitory concentration (IC50) under setting [1] is 675 nM; the IC50 under setting [2] was 154 nM; the IC50 under setting [3] is below 31.6 nM; the IC50 under setting [4] is below 31.6 nM; the IC50 under setting [5] is below 31.6 nM; the IC50 under setting [6] was below 31.6 nM. Also, the viability, T/C is 74.8% under setting [7]; 84.6% under setting [8]; 55.5% under setting [9]; 41.3% under setting [10]; 31.6% under setting [11]; 10.2% under setting [12]. The viability, T/C was 69.7% under setting [13]; 60.5% under setting [14]; 28.1% under setting [15]; 35.8% under setting [16]; 33.7% under setting [17]; 10.3% under setting [18]. The viability, T/C is 10.3% under setting [19]; 10.3% under setting [20]; 8.72% under setting [21]; 8.03% under setting [22]; 8.36% under setting [23]; 7.08% under setting [24]. Moreover, the viability, T/C is 0.25% under setting [25]; 0.31% under setting [26]; 0.77% under setting [27]; 0.22% under setting [28]; 0.16% under setting [29]; 1.27% under setting [30]. In addition, the viability, T/C is, setting by setting: under setting [31], 0.41%; under setting [32], 0.29%; under setting [33], 0.71%; under setting [34], 0.15%; under setting [35], 1.14%; under setting [36], 0.49%. For the same molecule, the viability, T/C reads like this: under setting [37], 0.2%; under setting [38], 0.75%; under setting [39], 0.51%; under setting [40], 0.26%; under setting [41], 0.35%; under setting [42], 1.21%.
For the molecule `Nc1ccn(C2OC(CO)C(O)C2(F)F)c(=O)n1` (stereo not drawn), the viability, T/C reads like this: (compound 0.0316 µM) 57.8% and 83.1%; (compound 0.1 µM) 24.7% and 60.2%; (compound 0.316 µM) 18% and 50.2%; (compound 1 µM) 23.2% and 52.5%; (compound 3.16 µM) 26.2% and 46.9%; (compound 10 µM) 21.6% and 37.8%.
`C=CC(=O)Nc1cc(Nc2nccc(-c3cn(C)c4ccccc34)n2)c(OC)cc1N(C)CCN(C)C`: the viability, T/C was 111% and 100% (compound 0.000949 µM); 108% and 99.8% (compound 0.003 µM); 97.8% and 98.2% (compound 0.00949 µM); 98% and 106% (compound 0.03 µM); 103% and 106% (compound 0.0949 µM); 89.4% and 103% (compound 0.3 µM). Also, the concentration for half-maximal inhibition (IC50) (curve of compound) is above 300 nM.
As to `CC(=O)O[C@H]1C(=O)[C@@]2(C)[C@H]([C@H](OC(=O)c3ccccc3)[C@]3(O)C[C@H](OC(=O)[C@H](O)[C@@H](NC(=O)c4ccccc4)c4ccccc4)C(C)=C1C3(C)C)[C@]1(OC(C)=O)CO[C@@H]1C[C@@H]2O`, the viability, T/C runs as follows: (compound 0.0316 µM) 22.5% and 55.4%; (compound 0.1 µM) 10.6% and 32.8%; (compound 0.316 µM) 11.2% and 23.4%; (compound 1 µM) 12.6% and 36.7%; (compound 3.16 µM) 16% and 32.8%; (compound 10 µM) 20.1% and 42.8%. For the same molecule, for the setting “curve of compound”, the IC50 is below 31.6 nM.
As for `CC(=O)O[C@H]1C(=O)[C@@]2(C)[C@H]([C@H](OC(=O)c3ccccc3)[C@]3(O)C[C@H](OC(=O)[C@H](O)[C@@H](NC(=O)c4ccccc4)c4ccccc4)C(C)=C1C3(C)C)[C@]1(OC(C)=O)CO[C@@H]1C[C@@H]2O` + CN1CCN(c2cc(C(=O)Nc3cc4cc(-c5cnn(C)c5)ccc4cn3)ccn2)CC1, the half-inhibitory concentration (IC50) under setting [1] is below 31.6 nM; the half-inhibitory concentration (IC50) under setting [2] was below 31.6 nM; the 50% inhibitory concentration (IC50) under setting [3] was below 31.6 nM; the IC50 under setting [4] is below 31.6 nM; the 50% inhibitory concentration (IC50) under setting [5] is below 31.6 nM; the IC50 under setting [6] is below 31.6 nM. The viability, T/C runs as follows: under setting [7], 22.1%; under setting [8], 11.1%; under setting [9], 11.2%; under setting [10], 10.7%; under setting [11], 11.2%; under setting [12], 12.3%. In addition, the viability, T/C runs as follows: under setting [13], 12.3%; under setting [14], 10.6%; under setting [15], 10.9%; under setting [16], 9.64%; under setting [17], 9.88%; under setting [18], 11.4%. Further, the viability, T/C runs as follows: under setting [19], 10.7%; under setting [20], 10.2%; under setting [21], 10.4%; under setting [22], 9.61%; under setting [23], 10.3%; under setting [24], 13.2%. The viability, T/C under setting [25] is 0.12%; the viability, T/C under setting [26] is 0.32%; the viability, T/C under setting [27] is 0.16%; the viability, T/C under setting [28] was 0.11%; the viability, T/C under setting [29] is 0.15%; the viability, T/C under setting [30] is 0.21%. For the same molecule, the viability, T/C is, setting by setting: under setting [31], 0.05%; under setting [32], 0.19%; under setting [33], 0.17%; under setting [34], 0.06%; under setting [35], 0.09%; under setting [36], 0.14%. The viability, T/C reads like this: under setting [37], 0.07%; under setting [38], 0.11%; under setting [39], 0.51%; under setting [40], 0.1%; under setting [41], 0.17%; under setting [42], 0.23%.
With `CN1CCN(c2cc(C(=O)Nc3cc4cc(-c5cnn(C)c5)ccc4cn3)ccn2)CC1`, the viability, T/C was 10.2% [middle of 12 runs] (compound 0.316 µM), 1.32% [middle of 11 runs] (compound 1 µM), 0.5% [middle of 11 runs] (compound 3.16 µM) and 0.32% [middle of 10 runs] (compound 10 µM). Also, under “compound alone, run of 07/31/2023”, the IC50 is 102 nM [middle of 12 runs].
Consider `COC1C=CCC(C)C(C)S(=O)(=O)NC(=O)c2ccc3c(c2)N(CC2CCC21)CC1(CCCc2cc(Cl)ccc21)CO3` (stereo not drawn), for which the viability, T/C (compound 0.0316 µM) was 88.5% and 107%; the viability, T/C (compound 0.1 µM) was 98.9% and 95.5%; the viability, T/C (compound 0.316 µM) was 61.2% and 104%; the viability, T/C (compound 1 µM) is 53.9% and 76%; the viability, T/C (compound 3.16 µM) was 35.8% and 49.4%; the viability, T/C (compound 10 µM) was 20.4% and 19%. Besides, the concentration for half-maximal inhibition (IC50) (curve of compound) was 1100 nM and 2930 nM.
For the molecule `Cn1ncnc1[C@H]1c2n[nH]c(=O)c3cc(F)cc(c23)N[C@@H]1c1ccc(F)cc1`, the viability, T/C was 82.2% and 103% (compound 0.000316 µM); 97% and 99.6% (compound 0.001 µM); 70% and 106% (compound 0.00316 µM); 87.6% and 108% (compound 0.01 µM); 74.9% and 108% (compound 0.0316 µM); 55.2% and 91.6% (compound 0.1 µM). Further, the IC50 (curve of compound) was above 100 nM.
